Measurements as given in patent publication US9061980B2, “Organic compounds” (NABRIVA THERAPEUTICS, AG, priority 2007, dated 2015).
In brackets after ≈: the same amount, converted by molar mass. Where two headings read alike, the source gives them in different places.

Experiments:
Assay type in all cases: cell-based
[1] = test system: Enterococcus faecalis ATCC51299 B5; experiment: MIC determination according to CLSI; settings: Enterococcus faecalis ATCC51299, strain B5
From the text: (§1) For example, the compounds of the present invention show antimicrobial, e.g. antibacterial, activity against gram positive bacteria, such as coagulase-positive and coagulase-negative Staphylococci, e.g. Staphylococcus aureus, Styphylococcus epidermis, Staphylococcus haemolyticus, Streptococci, e.g. Streptococcus pyogenes, Streptococcus pneumoniae, Streptococcus agalacticae, Enterococci, e.g. Enterococcus faecium and Moraxellaceae, e.g. Moraxella catarrhalis, Pasteurellaceae, e.g. Haemophilus influenzae, as well as against Mycoplasmactaceae, Chlamydiaceae, e.g. Chlamydia trachomatis, Chlamydia pneumoniae and obligatory anaerobes, e.g. Bacteroides fragilis, Clostridium difficile; in vitro in the Agar Dilution Test or Microdilution Test according to the Clinical and Laboratory Standards Institute (CLSI, former National Committee for Clinical Laboratory Standards (NCCLS) 2006, Document M7-A7 Vol. 26, No. 2: “Methods for dilution Antimicrobial Susceptibility Tests for Bacteria that Grow Aerobically—Seventh Edition, Approved Standard”; and in the in vitro determination of the antibacterial activity against anaerobic bacteria according to National Committee for Clinical Laboratory Standards (NCCLS) VOL. 24, No. 2, M11-A5, Methods for Antimicrobal Susceptibility Testing of Anaerobic Bacteria; Approved Standard; Sixth Edition (2004) and in vivo in the septicaemic mouse model against Staphylococcus aureus.
(§2) The antibacterial activity expressed as minimal inhibitory concentration (MIC) was determined according to the approved standard reference recommendations of CLSI (former NCCLS).

[2] = test system: Streptococcus pneumoniae ATCC49619 B11; experiment: MIC determination according to CLSI; settings: Streptococcus pneumoniae ATCC49619, strain B11
From the text: as §1, §2

[3] = test system: Enterococcus faecalis ATCC29212 B4; experiment: MIC determination according to CLSI; settings: Enterococcus faecalis ATCC29212, strain B4
From the text: as §1, §2

[4] = test system: Escherichia coli ATCC25922 B1; experiment: MIC determination according to CLSI; settings: Escherichia coli ATCC25922, strain B1
From the text: as §1, §2

[5] = test system: Staphylococcus aureus (MSSA) ATCC29213 B7; experiment: MIC determination according to CLSI; settings: Staphylococcus aureus (MSSA) ATCC29213, strain B7
From the text: as §1, §2

[6] = test system: Moraxella catarrhalis ATCC43618 B407; experiment: MIC determination according to CLSI; settings: Moraxella catarrhalis ATCC43618, strain B407
From the text: as §1, §2

[7] = test system: Staphylococcus aureus (MSSA) ATCC10390 B6; experiment: MIC determination according to CLSI; settings: Staphylococcus aureus (MSSA) ATCC10390, strain B6
From the text: as §1, §2

[8] = test system: Staphylococcus aureus, Enterococcus faecalis, Streptococcus pneumoniae, Moraxella catarrhalis and Escherichia coli; experiment: Antibacterial activity (MIC) against panel of clinical relevant bacterial pathogens; settings: for activity against the clinical relevant bacterial pathogens: in vitro, statement in words
Procedure: as §2

C=C[C@]1(C)C[C@@H](OC(=O)CSc2cccc(F)c2)[C@]2(C)C(C)CCC3(CCC(=O)C32)[C@@H](C)[C@@H]1O (stereo partly shown) [Example 1, 14-O-[(3-Fluoro-phenylsulfanyl)-acetyl]-mutilin]
MIC ([1]; read-out: MIC): > 25.6 µg/mL | MIC ([2]; read-out: MIC): 0.04 µg/mL (≈ 0.0819 µM) | MIC ([3]; read-out: MIC): 3.2 µg/mL (≈ 6.55 µM) | MIC ([4]; read-out: MIC): > 25.6 µg/mL | MIC ([5]; read-out: MIC): ≤ 0.0125 µg/mL | MIC ([6]; read-out: MIC): ≤ 0.0125 µg/mL | MIC ([7]; read-out: MIC): ≤ 0.0125 µg/mL | factor by which MICs are lower than the MICs of the comparator compounds ([8]; against at least one of the strains shown in Table 1, comparators examples 3, 6, 9, 12, 14 and 17): ≥ 2 | activity against the clinical relevant bacterial pathogens [8]: very good activity

C=C[C@]1(C)C[C@@H](OC(=O)CSc2ccccc2F)[C@]2(C)C(C)CCC3(CCC(=O)C32)[C@@H](C)[C@@H]1O (stereo partly shown) [Example 3, 14-O-[(2-Fluoro-phenylsulfanyl)-acetyl]-mutilin]
MIC ([1]; read-out: MIC): > 25.6 µg/mL | MIC ([2]; read-out: MIC): 0.16 µg/mL (≈ 0.327 µM) | MIC ([3]; read-out: MIC): > 25.6 µg/mL | MIC ([4]; read-out: MIC): > 25.6 µg/mL | MIC ([5]; read-out: MIC): 0.05 µg/mL (≈ 0.102 µM) | MIC ([6]; read-out: MIC): 0.025 µg/mL (≈ 0.0512 µM) | MIC ([7]; read-out: MIC): 0.05 µg/mL (≈ 0.102 µM)

C=C[C@]1(C)C[C@@H](OC(=O)CSc2ccc(F)cc2F)[C@]2(C)C(C)CCC3(CCC(=O)C32)[C@@H](C)[C@@H]1O (stereo partly shown) [Example 6, 14-O-[(2,4-Difluoro-phenylsulfanyl)-acetyl]-mutilin]
MIC ([1]; read-out: MIC): > 25.6 µg/mL | MIC ([2]; read-out: MIC): 0.32 µg/mL (≈ 0.632 µM) | MIC ([3]; read-out: MIC): > 25.6 µg/mL | MIC ([4]; read-out: MIC): > 25.6 µg/mL | MIC ([5]; read-out: MIC): 0.1 µg/mL (≈ 0.197 µM) | MIC ([6]; read-out: MIC): 0.05 µg/mL (≈ 0.0987 µM) | MIC ([7]; read-out: MIC): 0.1 µg/mL (≈ 0.197 µM)

C=C[C@]1(C)C[C@@H](OC(=O)CSc2cccc(O)c2)[C@]2(C)C(C)CCC3(CCC(=O)C32)[C@@H](C)[C@@H]1O (stereo partly shown) [Example 7, 14-O-[(3-Hydroxy-phenylsulfanyl)-acetyl]-mutilin]
MIC ([1]; read-out: MIC): > 25.6 µg/mL | MIC ([2]; read-out: MIC): 0.02 µg/mL (≈ 0.0411 µM) | MIC ([3]; read-out: MIC): > 25.6 µg/mL | MIC ([4]; read-out: MIC): > 25.6 µg/mL | MIC ([5]; read-out: MIC): ≤ 0.0125 µg/mL | MIC ([6]; read-out: MIC): ≤ 0.0125 µg/mL | MIC ([7]; read-out: MIC): ≤ 0.0125 µg/mL | activity against the clinical relevant bacterial pathogens [8]: very good activity

C=C[C@]1(C)C[C@@H](OC(=O)CSc2ccccc2O)[C@]2(C)C(C)CCC3(CCC(=O)C32)[C@@H](C)[C@@H]1O (stereo partly shown) [Example 9, 14-O-[(2-Hydroxy-phenylsulfanyl)-acetyl]-mutilin]
MIC ([1]; read-out: MIC): > 25.6 µg/mL | MIC ([2]; read-out: MIC): 0.16 µg/mL (≈ 0.329 µM) | MIC ([3]; read-out: MIC): > 25.6 µg/mL | MIC ([4]; read-out: MIC): > 25.6 µg/mL | MIC ([5]; read-out: MIC): ≤ 0.0125 µg/mL | MIC ([6]; read-out: MIC): ≤ 0.0125 µg/mL | MIC ([7]; read-out: MIC): ≤ 0.0125 µg/mL

C=C[C@]1(C)C[C@@H](OC(=O)CSc2cccc(OC)c2)[C@]2(C)C(C)CCC3(CCC(=O)C32)[C@@H](C)[C@@H]1O (stereo partly shown) [Example 10, 14-O-[(3-Methoxy-phenylsulfanyl)-acetyl]-mutilin]
MIC ([1]; read-out: MIC): > 25.6 µg/mL | MIC ([2]; read-out: MIC): 0.04 µg/mL (≈ 0.0799 µM) | MIC ([3]; read-out: MIC): > 25.6 µg/mL | MIC ([4]; read-out: MIC): > 25.6 µg/mL | MIC ([5]; read-out: MIC): 0.025 µg/mL (≈ 0.0499 µM) | MIC ([6]; read-out: MIC): ≤ 0.0125 µg/mL | MIC ([7]; read-out: MIC): 0.025 µg/mL (≈ 0.0499 µM) | activity against the clinical relevant bacterial pathogens [8]: very good activity

C=C[C@]1(C)C[C@@H](OC(=O)CSc2ccccc2OC)[C@]2(C)C(C)CCC3(CCC(=O)C32)[C@@H](C)[C@@H]1O (stereo partly shown) [Example 12, 14-O-[(2-Methoxy-phenylsulfanyl)-acetyl]mutilin]
MIC ([1]; read-out: MIC): > 25.6 µg/mL | MIC ([2]; read-out: MIC): 0.16 µg/mL (≈ 0.32 µM) | MIC ([3]; read-out: MIC): > 25.6 µg/mL | MIC ([4]; read-out: MIC): > 25.6 µg/mL | MIC ([5]; read-out: MIC): 0.2 µg/mL (≈ 0.399 µM) | MIC ([6]; read-out: MIC): 0.1 µg/mL (≈ 0.2 µM) | MIC ([7]; read-out: MIC): 0.2 µg/mL (≈ 0.399 µM)

C=C[C@]1(C)C[C@@H](OC(=O)CSc2cccc(C)c2)[C@]2(C)C(C)CCC3(CCC(=O)C32)[C@@H](C)[C@@H]1O (stereo partly shown) [Example 14, 14-O-[(3-Methyl-phenylsulfanyl)-acetyl]-mutilin]
MIC ([1]; read-out: MIC): > 6.4 µg/mL | MIC ([2]; read-out: MIC): 0.16 µg/mL (≈ 0.33 µM) | MIC ([3]; read-out: MIC): > 6.4 µg/mL | MIC ([4]; read-out: MIC): > 6.4 µg/mL | MIC ([5]; read-out: MIC): 0.05 µg/mL (≈ 0.103 µM) | MIC ([6]; read-out: MIC): 0.0125 µg/mL (≈ 0.0258 µM) | MIC ([7]; read-out: MIC): 0.025 µg/mL (≈ 0.0516 µM)

C=C[C@]1(C)C[C@@H](OC(=O)COc2cccc(O)c2)[C@]2(C)C(C)CCC3(CCC(=O)C32)[C@@H](C)[C@@H]1O (stereo partly shown) [Example 15, 14-O-[(3-Hydroxy-phenoxy)-acetyl]-mutilin]
MIC ([1]; read-out: MIC): 25.6 µg/mL (≈ 54.4 µM) | MIC ([2]; read-out: MIC): 0.04 µg/mL (≈ 0.085 µM) | MIC ([3]; read-out: MIC): 12.8 µg/mL (≈ 27.2 µM) | MIC ([4]; read-out: MIC): > 25.6 µg/mL | MIC ([5]; read-out: MIC): 0.025 µg/mL (≈ 0.0531 µM) | MIC ([6]; read-out: MIC): ≤ 0.0125 µg/mL | MIC ([7]; read-out: MIC): 0.025 µg/mL (≈ 0.0531 µM) | activity against the clinical relevant bacterial pathogens [8]: very good activity

C=C[C@]1(C)C[C@@H](OC(=O)COc2ccccc2O)[C@]2(C)C(C)CCC3(CCC(=O)C32)[C@@H](C)[C@@H]1O (stereo partly shown) [Example 17, 14-O-[(2-Hydroxy-phenoxy)-acetyl]-mutilin]
MIC ([1]; read-out: MIC): > 6.4 µg/mL | MIC ([2]; read-out: MIC): 0.16 µg/mL (≈ 0.34 µM) | MIC ([3]; read-out: MIC): > 6.4 µg/mL | MIC ([4]; read-out: MIC): > 6.4 µg/mL | MIC ([5]; read-out: MIC): 0.05 µg/mL (≈ 0.106 µM) | MIC ([6]; read-out: MIC): 0.0125 µg/mL (≈ 0.0266 µM) | MIC ([7]; read-out: MIC): 0.05 µg/mL (≈ 0.106 µM)

C=C[C@]1(C)C[C@@H](OC(=O)COc2cccc(C)c2)[C@]2(C)[C@H](C)CC[C@]3(CCC(=O)[C@H]32)[C@@H](C)[C@@H]1O [Example 19, 14-O-[(3-Methyl-phenoxy)-acetyl]-mutilin]
MIC [1]: >6.4 µg/mL | MIC [2]: 0.64 µg/mL (≈ 1.37 µM) | MIC [3]: >6.4 µg/mL | MIC [4]: >6.4 µg/mL | MIC [5]: 0.05 µg/mL (≈ 0.107 µM) | MIC [6]: 0.0125 µg/mL (≈ 0.0267 µM) | MIC [7]: 0.05 µg/mL (≈ 0.107 µM)
